Measurements: ChEMBL document CHEMBL3232826
Structures can show the parent of a compound that is named as a salt.

How the values were obtained:
in vitro = conditions: dog, MDCK cells
Description: Selectivity index, ratio of CTD50 for MDCK cells to ED50 for Influenza A virus (A/California/07/09(H1N1)) pdm09

[1] = Cytotoxicity against MDCK cells assessed as cell viability after 48 hrs by MTT assay; assay type: cell-based, Canis lupus familiaris; conditions: dog, read-out: CTD50

SMILES | selectivity ratio (in vitro) | CC50 at 48 h [1] [µM]
CC1(C)[C@@H]2CC[C@@]1(C)/C(=N/CCC/N=C1\C[C@H]3CC[C@]1(C)C3(C)C)C2 | 30 | 284
CC1(C)[C@@H]2CC[C@@]1(C)/C(=N/CCCCCC/N=C1\C[C@H]3CC[C@]1(C)C3(C)C)C2 | 89 | 1350
CC1(C)[C@@H]2CC[C@@]1(C)/C(=N/CCCCCCC/N=C1\C[C@H]3CC[C@]1(C)C3(C)C)C2 | 55 | 1260
CC1(C)[C@@H]2CC[C@@]1(C)/C(=N/CCCCCCCC/N=C1\C[C@H]3CC[C@]1(C)C3(C)C)C2 | 16 | 390
CC1(C)[C@@H]2CC[C@@]1(C)/C(=N/CCCCCCCCCCCC/N=C1\C[C@H]3CC[C@]1(C)C3(C)C)C2 | 49 | 2220
CC1(C)[C@@H]2CC[C@@]1(C)/C(=N/c1ccc(Cc3ccc(/N=C4\C[C@H]5CC[C@]4(C)C5(C)C)cc3)cc1)C2 | 3 | > 1070
CC1(C)[C@@H]2CC[C@@]1(C)/C(=N/c1ccc(Oc3ccc(/N=C4\C[C@H]5CC[C@]4(C)C5(C)C)cc3)cc1)C2 | 3 | > 1070
CC1(C)[C@@H]2CC[C@@]1(C)[C@H](NCCCCCCN[C@@H]1C[C@H]3CC[C@]1(C)C3(C)C)C2 | 7 | 5.4
CC1(C)[C@@H]2CC[C@@]1(C)[C@H](NCCCCCCCN[C@@H]1C[C@H]3CC[C@]1(C)C3(C)C)C2 | 3 | 10.4
CC1(C)[C@@H]2CC[C@@]1(C)[C@H](NCCCCCCCCCCCCN[C@@H]1C[C@H]3CC[C@]1(C)C3(C)C)C2 | 3 | 14.4
CC1(C)[C@@H]2CC[C@@]1(C)[C@H](Nc1ccc(Cc3ccc(N[C@@H]4C[C@H]5CC[C@]4(C)C5(C)C)cc3)cc1)C2 | 4 | > 638
CC1(C)[C@@H]2CC[C@@]1(C)[C@H](Nc1ccc(Oc3ccc(N[C@@H]4C[C@H]5CC[C@]4(C)C5(C)C)cc3)cc1)C2 | 3 | > 636
CN(CCCCCCN(C)[C@@H]1C[C@H]2CC[C@]1(C)C2(C)C)[C@@H]1C[C@H]2CC[C@]1(C)C2(C)C | 1 | 110
CN(CCCCCCCN(C)[C@@H]1C[C@H]2CC[C@]1(C)C2(C)C)[C@@H]1C[C@H]2CC[C@]1(C)C2(C)C | 17 | 698
CC1(C)[C@@H]2CC[C@@]1(C)/C(=N/c1ccc(Cc3ccc(N)cc3)cc1)C2 | 2 | 30.1
CC1(C)[C@@H]2CC[C@@]1(C)/C(=N/c1ccc(Oc3ccc(N)cc3)cc1)C2 | 8 | 32.9
CC(N)C1CC2CCC1C2 (stereo unspecified) | – | 1270
NC12CC3CC(CC(C3)C1)C2 [AMANTADINE] | 4 | –
CC1(C)C2CC[C@@]1(C)C(=O)C2 [CAMPHOR] | 2 | –
CC(N)C12CC3CC(CC(C3)C1)C2 (stereo unspecified) [RIMANTADINE HYDROCHLORIDE] | 5 | –
